The values below come from patent EP4703358A1, “BENZO SIX-MEMBERED HETEROCYCLIC GSPT1 PROTEIN DEGRADATION AGENT AND USE THEREOF” (China Pharmaceutical University, priority 2023, dated 2024).

By IC50 is commonly meant the point on the concentration scale where inhibition reaches its midpoint. A higher IC50 goes with lower potency.

In one assay the test system is KG-1 cells. Nature of the assay: Antiproliferative activity against KG-1 cells (CCK8). The class given is cell-based. The conditions noted are these: 72 hours. On the procedure:
KG-1 cells in the logarithmic growth phase were diluted in a culture medium (RPMI + 10% FBS) and plated onto 96-well plates at 5000 cells/well, and the plates were incubated in an incubator at 37 °C with 5% CO2 for 24 hours. 10 mM stock solutions of the test compounds of the present disclosure in DMSO were prepared and diluted with the culture medium to set 9 concentration gradients. Three replicate wells were set for each concentration. After compound addition, the plates were incubated in an incubator at 37 °C with 5% CO2 for 72 hours. The cell proliferation was assessed using the CCK8 method. The cell growth inhibition IC50 values of the compounds were determined using an enzyme labeling method. The IC50 values were calculated using GraphPad Prism 7 software.
The antiproliferative activity of the compounds against KG-1 cells is shown in Table 2, where A represents IC50 < 1 nM, B represents 1 ≤ IC50 < 10 nM, C represents 10 nM ≤ IC50 < 100 nM, D represents 100 nM ≤ IC50 < 1000 nM, and E represents IC50 ≥ 1000 nM. Table 2. The antiproliferative activity of compounds against KG-1 cells

A further assay addresses T1, GSPT1 protein (Homo sapiens, UniProt P15170+Q96SW2).
T1 construct: host or cells: KG-1 cells
Nature of the assay: Degradation of GSPT1 in KG-1 cells (Western blot). The class given is cell-based. The settings on record: KG-1 cells, compound concentration 200 nM, 4 hours. On the procedure:
KG-1 cells (ATCC) were grown in an IMDM culture medium (containing 20% FBS). After centrifugation and counting, the cell concentration was adjusted. The cells were plated onto 6-well plates at 10^6 cells/well, with 1350 µL per well. 150 µL of DMSO and the test compounds of the present disclosure (compound concentration: 200 nM) were added. The plates were incubated in an incubator at 37 °C with 5% CO2 for 4 hours. The cells were centrifuged, and the culture medium was discarded. PBS was added to wash the cells and then discarded. Whole cell lysates were prepared using a protease inhibitor cocktail (100×, Fude Biological), a protein phosphatase inhibitor cocktail (100×, Fude Biological), SuperNuclease (Beyotime), and a high-intensity RIPA lysis buffer (Thermo Fisher) and placed on ice for 30 minutes. After centrifugation, the cell debris precipitates were discarded, and the whole cell lysate supernatants were collected and transferred to new centrifuge tubes. After a BCA protein assay, samples were prepared using a 5× loading buffer (Thermo Fisher). The samples were subjected to protein electrophoresis separation in a 4-20% precast gel (SDS-PAGE gel), transferred to a PVDF membrane, then blocked with 5% NFDM/TBST at room temperature for 1 hour, incubated overnight with primary antibodies at 4 °C, and incubated with a secondary antibody at room temperature for 2 hours the next day. Signals were detected using a MINICHEMITM imaging system.
Primary antibodies: • Anti-GSPT1: Abcam ab234433 • Anti-beta actin: Fude Biological FD0060
Secondary antibody: Anti-rabbit peroxidase-linked secondary antibody: Fude Biological FDG007
The degradation effects of the compounds on GSPT1 protein are shown in Table 1, where A represents a GSPT1 protein degradation percentage of no less than 80%, B represents a degradation percentage of less than 80% but no less than 50%, C represents a degradation percentage of less than 50% but no less than 25%, and D represents a degradation percentage of less than 25%. Table 1. The degradation of GSPT1 protein by compounds
In general terms: In western blotting, separated proteins are transferred to a membrane and probed.

T1 sequence (P15170 whole entry): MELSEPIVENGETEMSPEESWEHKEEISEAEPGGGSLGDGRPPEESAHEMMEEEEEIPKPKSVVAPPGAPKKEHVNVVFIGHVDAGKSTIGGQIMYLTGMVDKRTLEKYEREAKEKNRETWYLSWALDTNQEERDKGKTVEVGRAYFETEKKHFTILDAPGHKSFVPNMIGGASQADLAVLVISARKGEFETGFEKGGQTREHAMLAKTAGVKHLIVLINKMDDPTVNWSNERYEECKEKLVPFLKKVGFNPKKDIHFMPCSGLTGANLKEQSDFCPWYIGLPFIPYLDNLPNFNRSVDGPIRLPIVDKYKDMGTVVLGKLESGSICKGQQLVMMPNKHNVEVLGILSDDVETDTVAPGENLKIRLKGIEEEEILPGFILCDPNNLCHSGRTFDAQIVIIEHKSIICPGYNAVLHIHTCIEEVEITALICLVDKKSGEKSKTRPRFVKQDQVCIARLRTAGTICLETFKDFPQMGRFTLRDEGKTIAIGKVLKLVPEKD
T1 sequence (Q96SW2 whole entry): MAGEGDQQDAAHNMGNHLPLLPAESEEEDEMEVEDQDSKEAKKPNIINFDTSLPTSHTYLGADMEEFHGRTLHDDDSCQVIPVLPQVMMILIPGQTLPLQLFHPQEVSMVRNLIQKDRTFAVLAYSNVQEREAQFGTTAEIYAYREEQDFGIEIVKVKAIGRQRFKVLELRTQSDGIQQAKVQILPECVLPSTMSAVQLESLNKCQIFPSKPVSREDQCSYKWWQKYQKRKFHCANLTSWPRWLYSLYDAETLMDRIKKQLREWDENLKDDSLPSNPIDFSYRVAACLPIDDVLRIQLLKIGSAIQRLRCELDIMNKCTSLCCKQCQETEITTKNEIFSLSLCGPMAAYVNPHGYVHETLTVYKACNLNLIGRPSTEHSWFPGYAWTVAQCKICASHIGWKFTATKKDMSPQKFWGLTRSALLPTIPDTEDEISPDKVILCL
T1 sequence (Q16531 whole entry partner): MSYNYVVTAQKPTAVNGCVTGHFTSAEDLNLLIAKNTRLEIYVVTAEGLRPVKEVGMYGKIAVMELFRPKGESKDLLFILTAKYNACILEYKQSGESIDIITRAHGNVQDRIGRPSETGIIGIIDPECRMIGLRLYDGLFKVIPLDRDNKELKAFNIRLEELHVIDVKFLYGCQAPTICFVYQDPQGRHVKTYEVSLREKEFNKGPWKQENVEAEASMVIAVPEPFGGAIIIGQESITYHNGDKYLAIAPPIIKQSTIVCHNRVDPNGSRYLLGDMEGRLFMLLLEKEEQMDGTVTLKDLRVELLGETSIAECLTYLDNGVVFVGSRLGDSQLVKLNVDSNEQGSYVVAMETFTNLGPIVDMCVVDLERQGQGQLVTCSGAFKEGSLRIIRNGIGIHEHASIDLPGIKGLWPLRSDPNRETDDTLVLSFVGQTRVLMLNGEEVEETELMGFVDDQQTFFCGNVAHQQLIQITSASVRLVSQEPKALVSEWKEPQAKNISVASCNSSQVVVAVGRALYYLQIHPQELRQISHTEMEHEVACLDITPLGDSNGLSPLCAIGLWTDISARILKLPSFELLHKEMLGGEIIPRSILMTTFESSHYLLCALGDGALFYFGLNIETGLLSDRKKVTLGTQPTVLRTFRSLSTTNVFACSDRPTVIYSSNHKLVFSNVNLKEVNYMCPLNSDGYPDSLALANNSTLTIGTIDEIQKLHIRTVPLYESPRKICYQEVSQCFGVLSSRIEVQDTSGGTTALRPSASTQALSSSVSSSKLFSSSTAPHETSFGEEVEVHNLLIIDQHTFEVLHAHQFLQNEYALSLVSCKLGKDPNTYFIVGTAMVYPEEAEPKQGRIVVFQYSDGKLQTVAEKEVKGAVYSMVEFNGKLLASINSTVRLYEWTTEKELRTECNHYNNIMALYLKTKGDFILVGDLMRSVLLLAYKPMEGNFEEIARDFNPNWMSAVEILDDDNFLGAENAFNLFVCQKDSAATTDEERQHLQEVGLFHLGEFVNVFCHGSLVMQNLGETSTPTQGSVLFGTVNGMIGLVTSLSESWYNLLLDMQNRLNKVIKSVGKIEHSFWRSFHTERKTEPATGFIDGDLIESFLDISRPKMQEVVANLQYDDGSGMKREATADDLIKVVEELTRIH

`Cc1cccc2c1C=C(C(=O)NCc1ccc3c(c1)CN(C1CCC(=O)NC1=O)C3=O)CO2` (stereo not shown) [Compound A-22, N-((2-(2,6-Dioxopiperidin-3-yl)-1-oxoisoindolin-5-yl)methyl)-5-methyl-2H-chromene-3-carboxamide] showed an IC50 with KG-1 cells (Homo sapiens) of 0.001 to 0.01 µM. This molecule also gave a percent GSPT1 degradation at 0.2 µM on GSPT1 protein of over 80%.

Consider `O=C1CCC(N2Cc3cc(CNC(=O)C4=Cc5ccc(F)c(F)c5OC4)ccc3C2=O)C(=O)N1` (stereo not shown) [Compound A-32, N-((2-(2,6-Dioxopiperidin-3-yl)-1-oxoisoindolin-5-yl)methyl)-7,8-difluoro-2H-chromene-3-carboxamide], for which, in the assay on KG-1 cells (Homo sapiens), the IC50 lay in the range of 0.001 to 0.01 µM. On GSPT1 protein, this molecule displayed a percent GSPT1 degradation at 0.2 µM of over 80%.

`O=C1CCC(N2Cc3c(ccc(CNC(=O)C4=Cc5cccc(OC(F)(F)F)c5OC4)c3F)C2=O)C(=O)N1` (stereo not shown) [Compound A-43, N-((2-(2,6-Dioxopiperidin-3-yl)-4-fluoro-1-oxoisoindolin-5-yl)methyl)-8-(trifluoromethoxy)-2H-chromene-3-carboxamide] returned an IC50 with KG-1 cells (Homo sapiens) of 0.001 to 0.01 µM. At GSPT1 protein, the percent GSPT1 degradation at 0.2 µM was over 80%.

`Cc1cc2c(cc1Cl)C=C(C(=O)NCc1ccc3c(c1)CN(C1CCC(=O)NC1=O)C3=O)CO2` (stereo not shown) [Compound A-28] gave an IC50 in the assay on KG-1 cells of 0.01 to 0.1 µM. The GSPT1 degradation entry at GSPT1 protein is “A (a GSPT1 protein degradation percentage of no less than 80%)”.

Turning to `Cc1cc(F)cc2c1OCC(C(=O)NCc1ccc3c(c1)CN(C1CCC(=O)NC1=O)C3=O)=C2` (stereo not shown) [Compound A-31, N-((2-(2,6-Dioxopiperidin-3-yl)-1-oxoisoindolin-5-yl)methyl)-6-fluoro-8-methyl-2H-chromene-3-carboxamide], the IC50 in the assay on KG-1 cells (Homo sapiens) was in the range of 0.001 to 0.01 µM. Moreover, the percent GSPT1 degradation at 0.2 µM on GSPT1 protein was over 80%.

In the assay with KG-1 cells (Homo sapiens), `C=CC(=O)Nc1ccc2c(c1)C=C(C(=O)NCc1ccc3c(c1)CN(C1CCC(=O)NC1=O)C3=O)CO2` (stereo not shown) [Compound A-24, N-((2-(2,6-Dioxopiperidin-3-yl)-1-oxoisoindolin-5-yl)methyl)-6-(acrylamido)-2H-chromene-3-carboxamide] had an IC50 of at least 1 µM. The same molecule gave a percent GSPT1 degradation at 0.2 µM on GSPT1 protein of 25 to 50%.

In the assay on KG-1 cells (Homo sapiens), `O=C1CCC(N2Cc3cc(CNC(=O)C4COc5ccc(Cl)cc5C4)ccc3C2=O)C(=O)N1` (stereo not shown) [Compound B-3, N-((2-(2,6-Dioxopiperidin-3-yl)-1-oxoisoindolin-5-yl)methyl)-6-chlorochromane-3-carboxamide] returned an IC50 of 0.001 to 0.01 µM. Further, at GSPT1 protein, the percent GSPT1 degradation at 0.2 µM was over 80%.

Molecule `CN(C)c1ccc2c(c1)C=C(C(=O)NCc1ccc3c(c1)CN(C1CCC(=O)NC1=O)C3=O)CO2` (stereo not shown) [Compound A-13, N-((2-(2,6-Dioxopiperidin-3-yl)-1-oxoisoindolin-5-yl)methyl)-6-(dimethylamino)-2H-chromene-3-carboxamide] displayed an IC50 in the assay on KG-1 cells (Homo sapiens) of 0.01 to 0.1 µM. At GSPT1 protein, this molecule gave a percent GSPT1 degradation at 0.2 µM of 50 to 80%.

For the molecule `O=C1CCC(N2Cc3cc(CNC(=O)C4=Cc5cccc(C(F)(F)F)c5OC4)ccc3C2=O)C(=O)N1` (stereo not shown) [Compound A-18, N-((2-(2,6-Dioxopiperidin-3-yl)-1-oxoisoindolin-5-yl)methyl)-8-trifluoromethyl-2H-chromene-3-carboxamide], in the assay with KG-1 cells (Homo sapiens), the IC50 is under 0.001 µM. This molecule also gave a percent GSPT1 degradation at 0.2 µM at GSPT1 protein of over 80%.

The molecule `C=Cc1ccc2c(c1)C=C(C(=O)NCc1ccc3c(c1)CN(C1CCC(=O)NC1=O)C3=O)CO2` (stereo not shown) [Compound A-14, N-((2-(2,6-Dioxopiperidin-3-yl)-1-oxoisoindolin-5-yl)methyl)-6-vinyl-2H-chromene-3-carboxamide] displayed an IC50 in the assay with KG-1 cells (Homo sapiens) of 0.01 to 0.1 µM. On GSPT1 protein, this molecule yielded a percent GSPT1 degradation at 0.2 µM of 50 to 80%.

For the molecule `COc1cccc2c1C=C(C(=O)NCc1ccc3c(c1)CN(C1CCC(=O)NC1=O)C3=O)CO2` (stereo not shown) [Compound A-9, N-((2-(2,6-Dioxopiperidin-3-yl)-1-oxoisoindolin-5-yl)methyl)-5-methoxy-2H-chromene-3-carboxamide], the IC50 in the assay with KG-1 cells (Homo sapiens) is 0.001 to 0.01 µM. Also, the percent GSPT1 degradation at 0.2 µM at GSPT1 protein was over 80%.
